# Test results published in patent US12653802B2, “Method for treating lung cancer” (priority 2020, dated 2026).
# Experiments:
# [1] = tested on: H1975 cells; assay: Cell survival assay in EGFR-TKIs resistant NSCLC cells, IC50 (FIG. 1B); assay type: cell-based; details: treated for 3 days, versus curcumin
# Procedure: (§1) Experimentally, another 7 EGFR-TKIs resistant NSCLC cells were treated with Compound 21a, Compound 35a, Compound 35d, Compound 36 or Compound 37, and then the cell survival assay was performed to measure the IC50 values of the diarylheptanoid compounds of the present disclosure in the EGFR-TKIs resistant NSCLC cells, so as to determine the growth inhibitory effect of the diarylheptanoid compounds of the present disclosure on the EGFR-TKIs resistant NSCLC cells.
# (§2) Please refer to FIG. 1B, FIG. 1C and FIG. 1D.
# [2] = tested on: H1650 cells; assay: Growth inhibition of EGFR gene mutant NSCLC cells, cell survival stained with crystal violet, IC50 (FIG. 1A); assay type: cell-based; details: treated for 3 days, versus parent compound curcumin
# Procedure: The EGFR gene mutant NSCLC cells were treated with the diarylheptanoid compounds of the present disclosure, and then the cell survival was stained with crystal violet to measure the IC50 values of the diarylheptanoid compounds of the present disclosure in the EGFR gene mutant NSCLC cells, so as to determine the growth inhibitory effect of the diarylheptanoid compounds of the present disclosure on the EGFR gene mutant NSCLC cells.
# EGFR gene mutations in lung cancer are mostly found in exons 18-21, which are the intracellular tyrosine kinase coding region. The most common mutations include E746-A750del in exon 19 and L858R point mutation in exon 21, which account for about 85%-90% of EGFR gene mutations. Tumor cells with these two mutations are sensitive to the EGFR-TKIs, known as activating mutations. Secondary mutations may occur in some tumor cells, and the most common secondary mutation is the T790M mutation in exon 20, which is a drug resistance mutation. […] The H1650 cells have the E746-A750del mutation in exon 19 of the EGFR gene, wherein the CCM represents curcumin and the BDMC represents bisdemethoxycurcumin.
# [3] = tested on: GR8 cells; assay: Cell survival assay in gefitinib-resistant NSCLC cells, IC50 (FIG. 1C); assay type: cell-based; details: treated for 3 days, versus curcumin
# Procedure: as §1, §2
# [4] = tested on: GR9 cells; assay: as above; assay type: cell-based; details: treated for 3 days, versus curcumin
# Procedure: as §1, §2
# [5] = tested on: GR5 cells; assay: as above; assay type: cell-based; details: treated for 3 days, versus curcumin
# Procedure: as §1, §2
# [6] = tested on: GR2 cells; assay: as above; assay type: cell-based; details: treated for 3 days, versus curcumin
# Procedure: as §1, §2
# [7] = tested on: GR10 cells; assay: as above; assay type: cell-based; details: treated for 3 days, versus curcumin
# Procedure: as §1, §2
# [8] = tested on: GR6 cells; assay: as above; assay type: cell-based; details: treated for 3 days, versus curcumin
# Procedure: as §1, §2
# [9] = Body weight changes in GR6 tumor mice, single and combined treatment (FIG. 3B); assay type: in vivo; details: Compound 35d 100 mg/kg per day alone or with osimertinib 1 mg/kg per day
# Procedure: (§3) EGFR-TKIs are currently the standard treatment for NSCLC patients with the EGFR gene mutation. To further test whether the combined use of the diarylheptanoid compound of the present disclosure and known drug can enhance the therapeutic effect of NSCLC, the GR6 tumor mice were divided into 4 groups. One group received 100 mg/kg Compound 35d treatment per day (represented as 35d), another group received 1 mg/kg osimertinib treatment per day (represented as Osi), still another group received the combined treatment of 100 mg/kg Compound 35d and 1 mg/kg osimertinib per day (represented as 35d+Osi), and the other group was the control group without drug treatment.
# [10] = Body weight changes in the tumor mice treated with Compound 35d alone (FIG. 2D); assay type: in vivo; details: 100 mg/kg daily, treated for more than 1 month
# Procedure: In order to verify the anticancer effect of the diarylheptanoid compound of the present disclosure in vivo, the GR6 tumor mouse model, the GR8 tumor mouse model and the HCC827 tumor mouse model of xenotransplantation were first established, and the GR6 tumor mice, the GR8 tumor mice, and the HCC827 tumor mice were treated with 100 mg/kg of Compound 35d daily for 35 days, and the tumor size and body weight of the GR6 tumor mice, the GR8 tumor mice, and the HCC827 tumor mice were recorded.
# [11] = tested on: GR6 tumor; assay: Tumor re-progression in GR6 tumor mice, single and combined treatment with osimertinib (FIG. 3A); assay type: in vivo; details: Compound 35d 100 mg/kg per day, osimertinib 1 mg/kg per day, alone or combined
# Procedure: as §3
SMILES,inhibitory activity on the growth of the H1975 cells (IC50) compared with curcumin [1],inhibitory activity on the growth of the H1650 cells (IC50) compared with curcumin [2],inhibitory activity on the growth of the GR8 cells (IC50) compared with curcumin [3],inhibitory activity on the growth of the GR9 cells (IC50) compared with curcumin [4],inhibitory activity on the growth of the GR5 cells (IC50) compared with curcumin [5],inhibitory activity on the growth of the GR2 cells (IC50) compared with curcumin [6],inhibitory activity on the growth of the GR10 cells (IC50) compared with curcumin [7],inhibitory activity on the growth of the GR6 cells (IC50) compared with curcumin [8],body weight of the GR6 tumor mice [9],body weight of the tumor mice [10],tumor size / tumor re-progression in the GR6 tumor mice [11]
"COc1cc(/C=C/C(=O)/C=C(O)/C=C/c2ccc(OC(=O)C(C)(CO)CO)c(OC)c2)ccc1OC(=O)C(C)(CO)CO [Compound 21a, ((1E,3Z,6E)-3-hydroxy-5-oxohepta-1,3,6-triene-1,7-diyl)bis(2-methoxy-4,1-phenylene)bis(3-hydroxy-2-hydroxymethyl)-2-methylpropanoate]",significantly better inhibitory activity than curcumin,significantly better inhibitory activity than the parent compound—curcumin,significantly better inhibitory activity than curcumin,significantly better inhibitory activity than curcumin,significantly better inhibitory activity than curcumin,significantly better inhibitory activity than curcumin,significantly better inhibitory activity than curcumin,significantly better inhibitory activity than curcumin,–,–,–
"COc1cc(/C=C/C(=O)C(C)(C)C(=O)/C=C/c2ccc(OC(=O)C(C)(CO)CO)c(OC)c2)ccc1OC(=O)C(C)(CO)CO [Compound 35a, ((1E,6E)-4,4-dimethyl-3,5-dioxohepta-1,6-diene-1,7-diyl)bis(2-methoxy-4,1-phenylene)bis(3-hydroxy-2-hydroxymethyl)-2-methylpropanoate]",significantly better inhibitory activity than curcumin,significantly better inhibitory activity than the parent compound—curcumin,significantly better inhibitory activity than curcumin,significantly better inhibitory activity than curcumin,significantly better inhibitory activity than curcumin,significantly better inhibitory activity than curcumin,significantly better inhibitory activity than curcumin,significantly better inhibitory activity than curcumin,–,–,–
"C#CCC(CC#C)(C(=O)/C=C/c1ccc(OC(=O)C(C)(CO)CO)c(OC)c1)C(=O)/C=C/c1ccc(OC(=O)C(C)(CO)CO)c(OC)c1 [Compound 35d, ((1E,6E)-3,5-dioxo-4,4-di(prop-2-yn-1-yl)hepta-1,6-diene-1,7-diyl)bis(2-methoxy-4,1-phenylene)bis(3-hydroxy-2-(hydroxymethyl)-2-methylpropanoate)]",–,–,–,–,–,–,–,–,neither the single treatment of Compound 35d nor the combined treatment of Compound 35d and osimertinib can significantly reduce the body weight,did not decrease significantly,–
C=CC(=O)Nc1cc(Nc2nccc(-c3cn(C)c4ccccc34)n2)c(OC)cc1N(C)CCN(C)C [osimertinib],–,–,–,–,–,–,–,–,–,–,"initially reduced by osimertinib treatment, the treated tumors subsequently re-growth"
